Patent US9527869B2, “Indolizine derivatives as phoshoinositide 3-kinases inhibitors” (CHIESI FARMACEUTICI S.P.A., priority 2014, dated 2016)

Columns and labels:
Assay type in all cases: biochemical
PI3Kα = molecular target: T1, PI3Kα (Homo sapiens, UniProt P42336); test: In vitro determination of the PI3K enzyme inhibitory activity in the cell free assay (ADP-Glo Kinase Assay), PI3Kα; conditions: ATP 50 μM, read-out: PI3K alpha inhibition
T1 construct: purchased Millipore Ltd (Billerica, Mass.)
Description: (§1) In vitro Determination of the PI3K Enzyme Inhibitory Activity in the Cell Free Assay
(§2) Human recombinant proteins PI3Kα, PI3Kβ, PI3Kγ and PI3Kδ were purchased from Millipore Ltd (Billerica, Mass.). Compounds were dissolved at 0.5 mM in DMSO and were tested at different concentrations for their activity against PI3Ks using the ADP-Glo™ Kinase Assay (Promega, Madison Wis.) according to the manufacturer's instructions.
(§3) Briefly, the kinase reactions were performed in 384-well white plates (Greiner Bio-One GmbH, Frickenhausen). Each well was loaded with 0.1 μl of test compounds and 2.5 μl of 2× reaction buffer (40 mM Tris pH7.5, 0.5 mM EGTA, 0.5 mM Na3VO4, 5 mM β-glycerophosphate, 0.1 mg/ml BSA, 1 mM DTT), containing 50 μM PI and PS substrates (L-α-phosphatidylinositol sodium salt and L-α-phosphatidyl-L-serine, Sigma-Aldrich, St. Louis Mo.) and the PI3K recombinant proteins (PI3Kγ 0.25 ng/μl, PI3Kδ 1 ng/μl, PI3Kα 0.125 ng/μl, PI3Kβ 1 ng/μl).
(§4) The reactions were started by adding 2.5 μl of 2×ATP solution to each well (final concentrations: PI3Kγ ATP 30 μM; PI3Kδ ATP 80 μM; PI3KαATP 50 μM; PI3Kβ ATP 100 μM) and incubated for 60 min at room temperature. Subsequently, each kinase reaction was incubated for 40 min with 5 μl ADP-Glo™ Reagent, allowing depletion of unconsumed ATP. Then, the Kinase Detection Reagent (10 μl) was added in each well to convert ADP to ATP and to allow the newly synthesized ATP to be measured using a luciferase/luciferin reaction. Following 60 min incubation, the luminescence signal was measured using a Wallac EnVision® multilabel reader (PerkinElmer, Waltham Mass.).
(§5) Curve fitting and IC50 calculation were carried out using a four-parameter logistic model in XLfit (IDBS, Guilford, UK) for Microsoft Excel (Microsoft, Redmont, Wash.).

PI3Kδ = molecular target: T2, PI3Kδ (Homo sapiens, UniProt O00329); test: In vitro determination of the PI3K enzyme inhibitory activity in the cell free assay (ADP-Glo Kinase Assay), PI3Kδ; conditions: ATP 80 μM, read-out: PI3K delta inhibition
T2 construct: purchased Millipore Ltd (Billerica, Mass.)
Description: as §1, §2, §3, §4, §5

PI3Kγ = molecular target: T3, PI3Kγ (Homo sapiens, UniProt P48736); test: In vitro determination of the PI3K enzyme inhibitory activity in the cell free assay (ADP-Glo Kinase Assay), PI3Kγ; conditions: ATP 30 μM, read-out: PI3K gamma inhibition
T3 construct: purchased Millipore Ltd (Billerica, Mass.)
Description: as §1, §2, §3, §4, §5

PI3Kβ = molecular target: T4, PI3Kβ (Homo sapiens, UniProt P42338); test: In vitro determination of the PI3K enzyme inhibitory activity in the cell free assay (ADP-Glo Kinase Assay), PI3Kβ; conditions: ATP 100 μM, read-out: PI3K beta inhibition
T4 construct: purchased Millipore Ltd (Billerica, Mass.)
Description: as §1, §2, §3, §4, §5

T4 sequence (P42338 whole entry): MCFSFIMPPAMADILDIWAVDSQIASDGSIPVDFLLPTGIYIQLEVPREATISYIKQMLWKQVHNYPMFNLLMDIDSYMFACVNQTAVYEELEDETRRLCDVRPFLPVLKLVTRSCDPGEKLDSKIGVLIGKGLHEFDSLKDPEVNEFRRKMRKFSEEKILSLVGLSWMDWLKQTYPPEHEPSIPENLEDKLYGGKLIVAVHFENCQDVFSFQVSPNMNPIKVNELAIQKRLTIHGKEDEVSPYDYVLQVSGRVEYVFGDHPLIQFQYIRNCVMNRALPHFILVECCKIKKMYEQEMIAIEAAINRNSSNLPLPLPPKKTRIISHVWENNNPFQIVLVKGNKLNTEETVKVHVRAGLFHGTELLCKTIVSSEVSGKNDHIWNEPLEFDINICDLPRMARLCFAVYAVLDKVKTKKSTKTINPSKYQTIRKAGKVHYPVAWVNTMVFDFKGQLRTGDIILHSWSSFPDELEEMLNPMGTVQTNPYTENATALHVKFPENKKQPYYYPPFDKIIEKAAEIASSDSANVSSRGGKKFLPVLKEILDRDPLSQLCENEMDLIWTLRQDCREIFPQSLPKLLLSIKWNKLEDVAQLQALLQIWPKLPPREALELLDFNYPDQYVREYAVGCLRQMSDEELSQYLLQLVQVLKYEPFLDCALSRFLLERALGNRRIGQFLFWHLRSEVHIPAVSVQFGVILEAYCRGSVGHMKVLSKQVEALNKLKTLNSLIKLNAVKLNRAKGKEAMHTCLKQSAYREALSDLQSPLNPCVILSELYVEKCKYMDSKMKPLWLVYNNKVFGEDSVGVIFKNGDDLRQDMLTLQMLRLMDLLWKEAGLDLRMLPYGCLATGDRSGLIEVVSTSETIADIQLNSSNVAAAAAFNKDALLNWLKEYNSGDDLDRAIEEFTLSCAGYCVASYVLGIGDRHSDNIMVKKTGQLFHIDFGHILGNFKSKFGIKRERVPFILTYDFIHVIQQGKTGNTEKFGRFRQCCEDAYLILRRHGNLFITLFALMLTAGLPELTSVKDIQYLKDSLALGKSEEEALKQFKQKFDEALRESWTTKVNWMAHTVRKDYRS
T4 sequence (P27986 whole entry partner): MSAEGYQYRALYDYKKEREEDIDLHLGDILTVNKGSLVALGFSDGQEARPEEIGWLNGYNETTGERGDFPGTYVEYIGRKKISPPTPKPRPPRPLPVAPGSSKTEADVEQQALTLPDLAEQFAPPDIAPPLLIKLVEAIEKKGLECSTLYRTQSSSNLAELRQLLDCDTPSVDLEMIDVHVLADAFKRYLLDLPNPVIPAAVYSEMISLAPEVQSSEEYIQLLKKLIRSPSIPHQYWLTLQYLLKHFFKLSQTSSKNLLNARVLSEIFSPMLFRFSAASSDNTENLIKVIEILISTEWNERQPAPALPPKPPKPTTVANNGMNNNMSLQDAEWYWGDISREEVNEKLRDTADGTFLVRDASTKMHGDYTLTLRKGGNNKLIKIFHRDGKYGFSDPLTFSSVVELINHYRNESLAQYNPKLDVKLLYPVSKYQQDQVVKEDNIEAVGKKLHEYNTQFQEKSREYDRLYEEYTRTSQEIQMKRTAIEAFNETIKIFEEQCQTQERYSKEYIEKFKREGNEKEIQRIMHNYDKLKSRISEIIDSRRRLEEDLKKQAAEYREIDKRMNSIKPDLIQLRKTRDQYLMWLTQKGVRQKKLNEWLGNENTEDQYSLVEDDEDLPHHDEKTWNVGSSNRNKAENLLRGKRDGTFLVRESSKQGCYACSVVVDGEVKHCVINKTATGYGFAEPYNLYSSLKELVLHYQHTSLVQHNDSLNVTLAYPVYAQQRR
T3 sequence (P48736 whole entry): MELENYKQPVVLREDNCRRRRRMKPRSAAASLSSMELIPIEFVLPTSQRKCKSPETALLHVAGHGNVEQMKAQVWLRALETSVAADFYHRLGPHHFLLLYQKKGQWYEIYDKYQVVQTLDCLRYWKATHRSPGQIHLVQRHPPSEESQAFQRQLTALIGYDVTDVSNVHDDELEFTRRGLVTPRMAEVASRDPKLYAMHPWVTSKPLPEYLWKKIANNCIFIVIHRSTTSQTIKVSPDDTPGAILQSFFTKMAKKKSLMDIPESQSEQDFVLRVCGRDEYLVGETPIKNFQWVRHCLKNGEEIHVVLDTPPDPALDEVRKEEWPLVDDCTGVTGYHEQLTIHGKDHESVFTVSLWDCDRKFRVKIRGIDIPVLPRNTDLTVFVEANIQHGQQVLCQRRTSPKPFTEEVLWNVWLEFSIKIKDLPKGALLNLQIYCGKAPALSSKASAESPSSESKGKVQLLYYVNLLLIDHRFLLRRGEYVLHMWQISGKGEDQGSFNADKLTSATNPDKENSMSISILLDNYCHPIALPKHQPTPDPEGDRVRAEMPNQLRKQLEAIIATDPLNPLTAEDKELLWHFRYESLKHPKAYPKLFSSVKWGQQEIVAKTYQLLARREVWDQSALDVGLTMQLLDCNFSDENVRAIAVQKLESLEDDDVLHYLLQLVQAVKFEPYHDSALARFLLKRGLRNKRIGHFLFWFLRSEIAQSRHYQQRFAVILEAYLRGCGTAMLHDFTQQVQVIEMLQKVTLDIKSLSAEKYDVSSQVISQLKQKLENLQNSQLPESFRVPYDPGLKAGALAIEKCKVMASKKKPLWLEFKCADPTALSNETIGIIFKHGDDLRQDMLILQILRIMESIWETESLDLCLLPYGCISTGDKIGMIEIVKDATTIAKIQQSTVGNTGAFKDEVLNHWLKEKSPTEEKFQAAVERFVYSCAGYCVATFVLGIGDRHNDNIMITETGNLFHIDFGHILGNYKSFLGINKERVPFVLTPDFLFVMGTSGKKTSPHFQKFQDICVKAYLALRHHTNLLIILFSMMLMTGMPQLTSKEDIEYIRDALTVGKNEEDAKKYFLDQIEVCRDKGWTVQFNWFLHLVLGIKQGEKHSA
T2 sequence (O00329 whole entry): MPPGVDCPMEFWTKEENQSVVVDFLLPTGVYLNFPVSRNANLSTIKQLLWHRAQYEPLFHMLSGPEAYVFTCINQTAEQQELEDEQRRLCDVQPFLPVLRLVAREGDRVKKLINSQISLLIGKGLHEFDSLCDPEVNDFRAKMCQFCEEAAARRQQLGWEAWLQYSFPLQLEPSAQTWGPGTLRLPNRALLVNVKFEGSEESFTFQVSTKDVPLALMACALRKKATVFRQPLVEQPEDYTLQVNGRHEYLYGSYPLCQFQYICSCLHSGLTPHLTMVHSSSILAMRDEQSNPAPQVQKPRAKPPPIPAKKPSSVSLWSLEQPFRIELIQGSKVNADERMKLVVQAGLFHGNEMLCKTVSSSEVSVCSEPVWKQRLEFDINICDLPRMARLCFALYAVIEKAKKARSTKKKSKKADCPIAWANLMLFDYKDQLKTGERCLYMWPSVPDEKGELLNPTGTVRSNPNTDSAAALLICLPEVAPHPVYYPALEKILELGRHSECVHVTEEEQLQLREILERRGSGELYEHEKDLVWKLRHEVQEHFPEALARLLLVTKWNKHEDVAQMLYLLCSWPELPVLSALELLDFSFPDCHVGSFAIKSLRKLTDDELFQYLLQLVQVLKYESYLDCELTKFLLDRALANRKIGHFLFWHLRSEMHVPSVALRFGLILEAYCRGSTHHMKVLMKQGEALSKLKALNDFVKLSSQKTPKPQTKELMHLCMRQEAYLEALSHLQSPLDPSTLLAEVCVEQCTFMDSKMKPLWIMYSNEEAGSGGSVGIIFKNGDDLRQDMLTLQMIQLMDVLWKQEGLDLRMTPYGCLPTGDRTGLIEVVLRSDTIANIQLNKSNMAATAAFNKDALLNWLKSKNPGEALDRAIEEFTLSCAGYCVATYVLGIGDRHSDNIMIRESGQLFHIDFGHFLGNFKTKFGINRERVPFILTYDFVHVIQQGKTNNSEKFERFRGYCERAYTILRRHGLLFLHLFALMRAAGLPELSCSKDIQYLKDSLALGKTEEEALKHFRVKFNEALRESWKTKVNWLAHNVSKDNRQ
T2 sequence (P27986 whole entry partner): as the sequence (P27986 whole entry partner) above
T1 sequence (P42336 whole entry): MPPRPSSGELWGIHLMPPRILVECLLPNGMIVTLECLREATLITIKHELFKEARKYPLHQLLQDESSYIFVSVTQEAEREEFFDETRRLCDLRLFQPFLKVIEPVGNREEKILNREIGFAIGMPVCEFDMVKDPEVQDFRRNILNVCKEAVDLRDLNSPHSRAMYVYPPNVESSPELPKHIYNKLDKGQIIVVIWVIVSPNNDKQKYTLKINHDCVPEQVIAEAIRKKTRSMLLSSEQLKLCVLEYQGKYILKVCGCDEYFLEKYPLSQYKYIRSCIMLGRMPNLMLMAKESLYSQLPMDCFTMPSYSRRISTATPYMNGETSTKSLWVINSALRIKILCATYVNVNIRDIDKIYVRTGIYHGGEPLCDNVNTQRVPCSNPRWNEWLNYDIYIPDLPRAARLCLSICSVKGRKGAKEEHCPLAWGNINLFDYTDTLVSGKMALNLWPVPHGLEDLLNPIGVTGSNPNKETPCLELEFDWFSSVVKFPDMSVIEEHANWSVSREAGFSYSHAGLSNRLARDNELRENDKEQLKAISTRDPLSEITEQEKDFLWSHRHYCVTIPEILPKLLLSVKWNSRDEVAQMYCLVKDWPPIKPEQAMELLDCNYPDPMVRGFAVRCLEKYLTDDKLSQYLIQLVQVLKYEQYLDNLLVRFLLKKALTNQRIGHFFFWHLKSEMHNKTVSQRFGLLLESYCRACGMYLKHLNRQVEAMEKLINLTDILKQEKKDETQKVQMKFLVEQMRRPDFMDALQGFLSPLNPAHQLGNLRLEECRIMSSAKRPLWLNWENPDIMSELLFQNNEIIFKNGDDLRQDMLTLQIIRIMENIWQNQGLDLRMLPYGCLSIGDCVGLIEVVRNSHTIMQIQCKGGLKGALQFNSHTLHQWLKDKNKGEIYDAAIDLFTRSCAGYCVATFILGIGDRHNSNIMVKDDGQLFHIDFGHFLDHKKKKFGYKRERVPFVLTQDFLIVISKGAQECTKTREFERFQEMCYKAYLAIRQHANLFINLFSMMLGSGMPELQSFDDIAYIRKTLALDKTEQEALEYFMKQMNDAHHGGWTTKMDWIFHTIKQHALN
T1 sequence (P27986 whole entry partner): as the sequence (P27986 whole entry partner) above

Row | Structure (SMILES) | IC50 (PI3Kα) | IC50 (PI3Kδ) | IC50 (PI3Kγ) | IC50 (PI3Kβ)
1 | CC(c1cc2ccccn2c1-c1ccccn1)n1nc(-c2cccc(CO)c2)c2c(N)ncnc21 (centres unmarked) [Example 64, [3-(4-amino-1-{1-[3-(pyridin-2-yl)indolizin-2-yl]ethyl}-1H-pyrazolo[3,4-d]pyrimidin-3-yl)phenyl]methanol] | > 1000 nM | 10 to 1000 nM | > 1000 nM | > 1000 nM
2 | c1ccc(-c2c(CNc3ncnc4[nH]cnc34)cn3ccccc23)cc1 [Example 17, N-[(1-phenylindolizin-2-yl)methyl]-9H-purin-6-amine] | > 1000 nM | > 1000 nM | > 1000 nM | > 1000 nM
3 | CC(c1cc2ccccn2c1-c1ccc(CN(C)C)cc1)n1nc(-c2cc(O)cc(F)c2)c2c(N)ncnc21 (centres unmarked) [Example 92, 3-{4-amino-1-[1-(3-{4-[(dimethylamino)methyl]phenyl}indolizin-2-yl)ethyl]-1H-pyrazolo[3,4-d]pyrimidin-3-yl}-5-fluorophenol] | > 1000 nM | 10 to 1000 nM | > 1000 nM | 10 to 1000 nM
4 | Cc1cccn2c(-c3ccccn3)c(C(C)Nc3ncnc(N)c3C#N)cc12 (centres unmarked) [Example 41, 4-amino-6-({1-[8-methyl-3-(pyridin-2-yl)indolizin-2-yl]ethyl}amino)pyrimidine-5-carbonitrile] | > 1000 nM | 10 to 1000 nM | > 1000 nM | > 1000 nM
5 | c1ccc(-c2c(CNc3ncnc4[nH]cnc34)cc3ccccn23)nc1 [Example 14, N-{[3-(pyridin-2-yl)indolizin-2-yl]methyl}-9H-purin-6-amine] | > 1000 nM | > 1000 nM | > 1000 nM | > 1000 nM
6 | CC(Nc1ncnc(N)c1C#N)c1cc2ccccn2c1C1=CCNCC1 (centres unmarked) [Example 45, 4-amino-6-({1-[3-(1,2,3,6-tetrahydropyridin-4-yl)indolizin-2-yl]ethyl}amino)pyrimidine-5-carbonitrile] | > 1000 nM | 10 to 1000 nM | > 1000 nM | 10 to 1000 nM
7 | CC(Nc1ncnc(N)c1/C=N/O)c1cc2ccccn2c1-c1ccccn1 (centres unmarked) [Example 58, 5-[(1E)-(hydroxyimino)methyl]-4-N-{1-[3-(pyridin-2-yl)indolizin-2-yl]ethyl}pyrimidine-4,6-diamine] | > 1000 nM | < 10 nM | > 1000 nM | 10 to 1000 nM
8 | CC(c1cc2ccccn2c1CN1CC2(CCN(C)CC2)C1)n1nc(-c2cc(O)cc(F)c2)c2c(N)ncnc21 (centres unmarked) [Example 144, 3-(4-amino-1-{1-[3-({7-methyl-2,7-diazaspiro[3.5]nonan-2-yl}methyl)indolizin-2-yl]ethyl}-1H-pyrazolo[3,4-d]pyrimidin-3-yl)-5-fluorophenol] | 10 to 1000 nM | 10 to 1000 nM | 10 to 1000 nM | 10 to 1000 nM
9 | N#Cc1c(N)ncnc1NCc1cn2ccccc2c1-c1ccccc1 [Example 27, 4-amino-6-{[(1-phenylindolizin-2-yl)methyl]amino}pyrimidine-5-carbonitrile] | > 1000 nM | > 1000 nM | > 1000 nM | > 1000 nM
10 | c1ccc(-c2c(CNc3ncnc4[nH]cnc34)cc3ccccn23)cc1 [Example 13, N-[(3-phenylindolizin-2-yl)methyl]-9H-purin-6-amine] | > 1000 nM | > 1000 nM | > 1000 nM | > 1000 nM
11 | CC(c1cc2ccccn2c1-c1ccc(CN2CCN(C)CC2)cn1)n1nc(-c2cc(O)cc(F)c2)c2c(N)ncnc21 (centres unmarked) [Example 114, 3-{4-amino-1-[1-(3-{5-[(4-methylpiperazin-1-yl)methyl]pyridin-2-yl}indolizin-2-yl)ethyl]-1H-pyrazolo-[3,4-d]pyrimidin-3-yl}-5-fluorophenol] | > 1000 nM | < 10 nM | > 1000 nM | 10 to 1000 nM
12 | CC(Nc1ncnc(N)c1C#CCO)c1cc2ccccn2c1-c1ccccn1 (centres unmarked) [Example 59, 3-[4-amino-6-({1-[3-(pyridin-2-yl)indolizin-2-yl]ethyl}amino)pyrimidin-5-yl]prop-2-yn-1-ol] | > 1000 nM | 10 to 1000 nM | > 1000 nM | > 1000 nM
13 | CC(Nc1ncnc(N)c1C#N)c1cc2ccccn2c1-c1ccccn1 (centres unmarked) [Example 33, 4-amino-6-({1-[3-(pyridin-2-yl)indolizin-2-yl]ethyl}amino)pyrimidine-5-carbonitrile] | > 1000 nM | 10 to 1000 nM | > 1000 nM | 10 to 1000 nM
14 | Cc1cc(-c2c(C(C)n3nc(-c4cncc(O)c4)c4c(N)ncnc43)cc3ccccn23)ccn1 (centres unmarked) [Example 107, 5-(4-amino-1-{1-[3-(2-methylpyridin-4-yl)indolizin-2-yl]ethyl}-1H-pyrazolo[3,4-d]pyrimidin-3-yl)pyridin-3-ol] | > 1000 nM | < 10 nM | 10 to 1000 nM | 10 to 1000 nM
15 | Cc1ccc2cc(C(C)n3nc(-c4cc(O)cc(F)c4)c4c(N)ncnc43)c(-c3ccccn3)n2c1 (centres unmarked) [Example 87, 3-(4-amino-1-{1-[6-methyl-3-(pyridin-2-yl)indolizin-2-yl]ethyl}-1H-pyrazolo[3,4-d]pyrimidin-3-yl)-5-fluorophenol] | > 1000 nM | 10 to 1000 nM | > 1000 nM | 10 to 1000 nM
16 | CC(c1cc2ccccn2c1-c1ccccn1)n1nc(-c2cnc(N)s2)c2c(N)ncnc21 (centres unmarked) [Example 103, 5-(4-amino-1-{1-[3-(pyridin-2-yl)indolizin-2-yl]ethyl}-1H-pyrazolo[3,4-d]pyrimidin-3-yl)-1,3-thiazol-2-amine] | > 1000 nM | 10 to 1000 nM | 10 to 1000 nM | 10 to 1000 nM
17 | CC(c1cc2ccccn2c1-c1ccc(=O)n(CCN2CCN(C)CC2)n1)n1nc(-c2cc(O)cc(F)c2)c2c(N)ncnc21 (centres unmarked) [Example 135, 6-(2-{1-[4-amino-3-(3-fluoro-5-hydroxyphenyl)-1H-pyrazolo[3,4-d]pyrimidin-1-yl]-ethyl}indolizin-3-yl)-2-[2-(4-methylpiperazin-1-yl)ethyl]-2,3-dihydropyridazin-3-one] | > 1000 nM | 10 to 1000 nM | > 1000 nM | 10 to 1000 nM
18 | CC(c1c(C#N)c2ccccn2c1-c1ccccn1)n1nc(-c2cc(O)cc(F)c2)c2c(N)ncnc21 (centres unmarked) [Example 126, 2-{1-[4-amino-3-(3-fluoro-5-hydroxyphenyl)-1H-pyrazolo[3,4-d]pyrimidin-1-yl]-ethyl}-3-(pyridin-2-yl)indolizine-1-carbonitrile] | 10 to 1000 nM | < 10 nM | 10 to 1000 nM | 10 to 1000 nM
19 | CC(c1cc2ccccn2c1-c1ccn(CCN2CCOCC2)c(=O)c1)n1nc(-c2cncc(O)c2)c2c(N)ncnc21 (centres unmarked) [Example 122, 4-(2-{1-[4-amino-3-(5-hydroxypyridin-3-yl)-1H-pyrazolo[3,4-d]pyrimidin-1-yl]ethyl}indolizin-3-yl)-1-[2-(morpholin-4-yl)ethyl]-1,2-dihydropyridin-2-one] | > 1000 nM | < 10 nM | > 1000 nM | 10 to 1000 nM
20 | N#Cc1c(N)ncnc1NCc1cc2ccccn2c1-c1ccccc1F [Example 25, 4-amino-6-({[3-(2-fluorophenyl)indolizin-2-yl]methyl}amino)pyrimidine-5-carbonitrile] | > 1000 nM | 10 to 1000 nM | > 1000 nM | > 1000 nM
21 | CCC(Nc1ncnc(N)c1C#N)c1cc2ccccn2c1-c1ccccn1 (centres unmarked) [Example 44, 4-amino-6-({1-[3-(pyridin-2-yl)indolizin-2-yl]propyl}amino)pyrimidine-5-carbonitrile] | > 1000 nM | 10 to 1000 nM | 10 to 1000 nM | > 1000 nM
22 | Cc1ccccc1-c1c(CNc2ncnc(N)c2C#N)cn2ccccc12 [Example 29, 4-amino-6-({[1-(2-methylphenyl)indolizin-2-yl]methyl}amino)pyrimidine-5-carbonitrile] | > 1000 nM | 10 to 1000 nM | > 1000 nM | > 1000 nM
23 | C[C@H](c1cc2ccccn2c1-c1ccc(CN(CCO)CCO)cn1)n1nc(-c2cc(O)cc(F)c2)c2c(N)ncnc21 (single isomer, unassigned) [Example 117b, 3-(4-amino-1-{1-[3-(5-{[bis(2-hydroxyethyl)amino]methyl}pyridin-2-yl)indolizin-2-yl]ethyl}-1H-pyrazolo[3,4-d]pyrimidin-3-yl)-5-fluorophenol] | 10 to 1000 nM | < 10 nM | > 1000 nM | 10 to 1000 nM
